The subject of one assay is Alternaria solani. In words: Example A1: Alternaria solani / tomato / leaf disc (early blight). The class given is in vivo. Particulars: foliar, tomato leaf disks inoculated 2 days after application, compared to untreated control.
The subject of assay [1] is Mycosphaerella graminicola (Septoria tritici). The assay is described as follows: Example A14: Mycosphaerella graminicola (Septoria tritici) / liquid culture (Septoria blotch). Type of assay: cell-based. To be noted: Zymoseptoria tritici; read-out: control of Mycosphaerella graminicola.
In assay [2] the test system is Magnaporthe grisea (Pyricularia oryzae). In words: whole plant or invertebrate. Particulars: foliar, read-out: control of Magnaporthe grisea. Type of assay: in vivo.
The test system of another assay is Pyrenophora teres. In words: Example A12: Pyrenophora teres / barley / leaf disc preventative (net blotch). Particulars: foliar, inoculated 2 days after application, compared to untreated control. Type of assay: in vivo.
Assay [3] concerns Glomerella lagenarium (Colletotrichum lagenarium). The assay is described as follows: Example A3: Glomerella lagenarium (Colletotrichum lagenarium) / liquid culture (anthracnose). The class given is cell-based. To be noted: Colletotrichum orbiculare; read-out: control of Glomerella lagenarium.
For assay [4], the system named is Monographella nivalis (Microdochium nivale). The assay is described as follows: Example A6: Monographella nivalis (Microdochium nivale) / liquid culture (foot rot cereals). Type of assay: cell-based. To be noted: read-out: control of Monographella nivalis.
Assay [5] deals with Puccinia recondita f. sp. tritici. Type of assay: in vivo. Particulars: foliar, wheat leaf disc preventative, inoculated 1 day after application, compared to untreated control.
Assay [6] has as its system Mycosphaerella arachidis (Cercospora arachidicola). In words: Example A7: Mycosphaerella arachidis (Cercospora arachidicola) / liquid culture (early leaf spot). The class given is cell-based. To be noted: read-out: control of Mycosphaerella arachidis.
In a further assay the test system is Phakopsora pachyrhizi. The assay is described as follows: Example A8: Phakopsora pachyrhizi / soybean / preventative (soybean rust). The class given is in vivo. Particulars: foliar, soybean leaf disks preventative, inoculated one day after application, compared to untreated control.
The subject of assay [7] is Puccinia recondita f. sp. tritici. Type of assay: in vivo. To be noted: foliar, 24 h, wheat leaf disc curative, applied 1 day after inoculation, compared to untreated control.
In assay [8] the test system is Botryotinia fuckeliana (Botrytis cinerea). The assay is described as follows: Example A2: Botryotinia fuckeliana (Botrytis cinerea) / liquid culture (gray mould). The class given is cell-based. To be noted: read-out: control of Botryotinia fuckeliana. An excerpt: Example A2: Botryotinia Fuckeliana (Botrytis Cinerea) / Liquid Culture (Gray Mould) Conidia of the fungus from cryogenic storage are directly mixed into nutrient broth (Vogels broth). […] […].38.

Read-outs that look alike come from different tables or passages of the source.

Turning to `CC(=O)OC(C)C(=O)N(c1cc(F)nc(F)c1)c1nc(C(=O)NC2CCC23CCCC3)c(C)s1` (centres unmarked) [X.01, [2-[(2,6-difluoro-4-pyridyl)-[5-methyl-4-(spiro[3.4]octan-3-ylcarbamoyl)thiazol-2-yl]amino]-1-methyl-2-oxo-ethyl] acetate], the pest or weed control at 200 ppm (with Alternaria solani; in assay [2]; with Pyrenophora teres; in assay [5]) was not below 80% each time. Besides, the inhibition of growth at 20 ppm in assay [1], in [3] and in assay [4] was not below 80% in each case.
For the compound `COC(=O)OC(C)C(=O)N(c1cc(F)nc(F)c1)c1nc(C(=O)NC2CCC23CCCC3)c(C)s1` (centres unmarked) [X.03, [2-[(2,6-difluoro-4-pyridyl)-[5-methyl-4-(spiro[3.4]octan-3-ylcarbamoyl)thiazol-2-yl]amino]-1-methyl-2-oxo-ethyl] methyl carbonate], the inhibition of growth at 20 ppm in [1], in assay [3] and in assay [4] was not below 80% throughout. The pest or weed control at 200 ppm (in assay [2]; in the assay on Pyrenophora teres; in [5]) was not below 80% in each case.
For the compound `CCOC(=O)OC(C)C(=O)N(c1cc(F)nc(F)c1)c1nc(C(=O)NC2CCC23CCCC3)c(C)s1` (centres unmarked) [X.04, [2-[(2,6-difluoro-4-pyridyl)-[5-methyl-4-(spiro[3.4]octan-3-ylcarbamoyl)thiazol-2-yl]amino]-1-methyl-2-oxo-ethyl] ethyl carbonate], the pest or weed control at 200 ppm (in the assay on Alternaria solani; in assay [2]; in the assay on Pyrenophora teres; in assay [5]) was not below 80% in each case. Also, the inhibition of growth at 20 ppm in assay [1], in assay [3], in assay [4] and in assay [6] was not below 80% throughout.
As to `Cc1sc(N(C(=O)C(C)O)c2cc(F)nc(F)c2)nc1C(=O)NC1CCC12CCCC2` (centres unmarked) [X.05, 2-[(2,6-difluoro-4-pyridyl)-(2-hydroxypropanoyl)amino]-5-methyl-N-spiro[3.4]octan-3-yl-thiazole-4-carboxamide], the inhibition of growth at 20 ppm in assay [1], in [3] and in [4] was not below 80% in each case. The pest or weed control at 200 ppm in [2] and in assay [5] was not below 80% throughout.
Take `COC(C)C(=O)N(c1cc(F)nc(F)c1)c1nc(C(=O)NC2CCC2)c(C)s1` (centres unmarked) [X.07, N-cyclobutyl-2-[(2,6-difluoro-4-pyridyl)-(2-methoxypropanoyl)amino]-5-methylthiazole-4-carboxamide]: the pest or weed control at 200 ppm (in assay [2]; with Phakopsora pachyrhizi; in assay [5]) was not below 80% each time.
Regarding `CC(=O)OCC(=O)N(c1cc(F)nc(F)c1)c1nc(C(=O)NC2CCC2(C)C)c(C)s1` (centres unmarked) [X.08, [2-[(2,6-difluoro-4-pyridyl)-[4-[(2,2-dimethylcyclobutyl)carbamoyl]-5-methyl-thiazol-2-yl]amino]-2-oxo-ethyl] acetate], the pest or weed control at 200 ppm (in the assay with Alternaria solani; in assay [2]; with Pyrenophora teres; in [7]; in the assay on Phakopsora pachyrhizi; in [5]) was not below 80% each time. For the same compound, the inhibition of growth at 20 ppm in assay [1], in assay [3], in [4] and in assay [6] was not below 80% each time.
For `Cc1sc(N(C(=O)Cc2ccccc2)c2cc(F)nc(F)c2)nc1C(=O)NC1CCC1(C)C` (centres unmarked) [X.09, 2-[(2,6-difluoro-4-pyridyl)-(2-phenylacetyl)amino]-N-(2,2-dimethylcyclobutyl)-5-methyl-thiazole-4-carboxamide], the pest or weed control at 200 ppm (in the assay on Alternaria solani; in assay [2]; in assay [5]) was not below 80% in each case. For the same compound, the inhibition of growth at 20 ppm in [1], in assay [3] and in assay [4] was not below 80% throughout.
In the case of `Cc1sc(N(C(=O)CCl)c2cc(F)nc(F)c2)nc1C(=O)NC1CCC1(C)C` (centres unmarked) [X.17, 2-[(2-chloroacetyl)-(2,6-difluoro-4-pyridyl)amino]-N-(2,2-dimethylcyclobutyl)-5-methyl-thiazole-4-carboxamide], the pest or weed control at 200 ppm (in the assay with Alternaria solani; in assay [2]; in the assay with Pyrenophora teres; in [7]; in the assay on Phakopsora pachyrhizi; in [5]) was not below 80% in each case. Further, the inhibition of growth at 20 ppm in [1], in assay [3], in assay [4] and in assay [6] was not below 80% each time.
As to `COC(=O)CC(=O)N(c1cc(F)nc(F)c1)c1nc(C(=O)NC2CCC2(C)C)c(C)s1` (centres unmarked) [X.18, methyl 3-[(2,6-difluoro-4-pyridyl)-[4-[(2,2-dimethylcyclobutyl)carbamoyl]-5-methyl-thiazol-2-yl]amino]-3-oxo-propanoate], the pest or weed control at 200 ppm (in the assay on Alternaria solani; in assay [2]; with Pyrenophora teres; in assay [7]; in assay [5]) was not below 80% throughout. The inhibition of growth at 20 ppm in assay [1], in assay [3], in assay [4] and in assay [6] was not below 80% each time.
Turning to `Cc1sc(N(C(=O)CC(F)(F)F)c2cc(F)nc(F)c2)nc1C(=O)NC1CCC1(C)C` (centres unmarked) [X.21, 2-[(2,6-difluoro-4-pyridyl)-(3,3,3-trifluoropropanoyl)amino]-N-(2,2-dimethylcyclobutyl)-5-methyl-thiazole-4-carboxamide], the pest or weed control at 200 ppm (with Alternaria solani; in assay [2]; in assay [7]; in assay [5]) was not below 80% each time. Further, the inhibition of growth at 20 ppm in [1], in [3], in assay [4] and in assay [6] was not below 80% throughout.
In the case of `COC(=O)CCC(=O)N(c1cc(F)nc(F)c1)c1nc(C(=O)NC2CCC2(C)C)c(C)s1` (centres unmarked) [X.23, methyl 4-[(2,6-difluoro-4-pyridyl)-[4-[(2,2-dimethylcyclobutyl)carbamoyl]-5-methyl-thiazol-2-yl]amino]-4-oxo-butanoate], the pest or weed control at 200 ppm (with Alternaria solani; in [2]; with Pyrenophora teres; in [7]; in assay [5]) was not below 80% each time. Besides, the inhibition of growth at 20 ppm in assay [3] and in [4] was not below 80% each time.
Take `Cc1sc(N(C(=O)CF)c2cc(F)nc(F)c2)nc1C(=O)NC1CCC1(C)C` (centres unmarked) [X.27, 2-[(2,6-difluoro-4-pyridyl)-(2-fluoroacetyl)amino]-N-(2,2-dimethylcyclobutyl)-5-methyl-thiazole-4-carboxamide]: the pest or weed control at 200 ppm (in the assay with Alternaria solani; in assay [2] (200 ppm); with Pyrenophora teres; in assay [7]; in the assay on Phakopsora pachyrhizi; in [5]) was not below 80% each time. The inhibition of growth at 20 ppm in [1], in assay [3], in [4] and in assay [6] was not below 80% each time.
For `COCCOC(=O)N(c1cc(F)nc(F)c1)c1nc(C(=O)NC2CCC2(C)C)c(C)s1` (centres unmarked) [X.28, 2-methoxyethyl N-(2,6-difluoro-4-pyridyl)-N-[4-[(2,2-dimethylcyclobutyl)carbamoyl]-5-methyl-thiazol-2-yl]carbamate], the pest or weed control at 200 ppm in assay [2], in assay [7] and in assay [5] was not below 80% in each case. Also, the inhibition of growth at 20 ppm in [4] was not below 80%.
As to `CC(=O)N(c1cc(F)nc(F)c1)c1nc(C(=O)NC2CCC2(C)C)c(C)s1` (centres unmarked) [X.36, 2-[acetyl-(2,6-difluoro-4-pyridyl)amino]-N-(2,2-dimethylcyclobutyl)-5-methylthiazole-4-carboxamide], the pest or weed control at 200 ppm (with Alternaria solani; in assay [2]; with Pyrenophora teres; in assay [5]) was not below 80% in each case. For the same compound, the inhibition of growth at 20 ppm in [8] is not below 70%; in [1], not below 80%; in assay [3], not below 80%; in assay [4], not below 80%.

(Values after US20230270114A1, “FUNGICIDAL COMPOSITIONS” (SYNGENTA CROP PROTECTION AG, priority 2020, published 2023).)
